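Test compounds were applied to cells in 96-well plates for 48 hours at 5 doses. GI50 marks 50% less growth.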 Active and inactive are the calls of the source. No stated cut-off is given here; in the data, active = GI50 up to about 1.1 µM and inactive = higher.
Tests used:
Test in all cases: inhibition of tumour cell growth, NCI panel, 48 h
NCI-H23 = test system: NCI-H23
OVCAR-5 = test system: OVCAR-5
COLO 205 = test system: COLO 205
SF-268 = test system: SF-268
HOP-92 = test system: HOP-92
SW-620 = test system: SW-620
RPMI-8226 = test system: RPMI-8226
ACHN = test system: ACHN
CAKI-1 = test system: CAKI-1
RXF 393 = test system: RXF 393
SK-MEL-5 = test system: SK-MEL-5
HCT-116 = test system: HCT-116
T47D = test system: T47D
A549 = test system: A549
SK-OV-3 = test system: SK-OV-3
HCC 2998 = test system: HCC 2998
SF-295 = test system: SF-295
PC-3 = test system: PC-3
A498 = test system: A498

SMILES | GI50 (NCI-H23) | GI50 (OVCAR-5) | GI50 (COLO 205) | GI50 (SF-268) | GI50 (HOP-92) | GI50 (SW-620) | GI50 (RPMI-8226) | GI50 (ACHN) | GI50 (CAKI-1) | GI50 (RXF 393) | GI50 (SK-MEL-5) | GI50 (HCT-116) | GI50 (T47D) | GI50 (A549) | GI50 (SK-OV-3) | GI50 (HCC 2998) | GI50 (SF-295) | GI50 (PC-3) | GI50 (A498)
O=C(O)c1cc(/C=C/c2ccc(O)c(O)c2)ccc1O | > 100 µM (inactive) | > 100 µM (inactive) | > 100 µM (inactive) | > 100 µM (inactive) | > 100 µM (inactive) | > 10 µM (inactive) | 31 µM (inactive) | > 100 µM (inactive) | 32.7 µM (inactive) | 28.1 µM (inactive) | > 100 µM (inactive) | 40 µM (inactive) | > 100 µM (inactive) | > 100 µM (inactive) | > 100 µM (inactive) | > 100 µM (inactive) | > 100 µM (inactive) | > 100 µM (inactive) | –
CCC(C)C(=O)O[C@H]1C(=O)O[C@@H]2C[C@H]3C(C)=CC(=O)[C@@H](O)[C@]3(C)[C@H]3[C@@H](O)[C@H](O)[C@@]4(C)OC[C@]32[C@@H]14 (stereo partly drawn) | < 0.01 µM (active) | < 0.0244 µM (active) | 0.0229 µM (active) | < 0.0164 µM (active) | < 0.0237 µM (active) | < 0.0162 µM (active) | < 0.016 µM (active) | < 0.0156 µM (active) | < 0.0455 µM (active) | 0.015 µM (active) | < 0.0169 µM (active) | < 0.01 µM (active) | < 0.01 µM (active) | 0.141 µM (active) | 0.0832 µM (active) | < 0.0147 µM (active) | < 0.0205 µM (active) | < 0.01 µM (active) | < 0.01 µM (active)
CN(CC(=O)O)c1ncc2c(n1)C=CCC2 | > 100 µM (inactive) | > 100 µM (inactive) | > 100 µM (inactive) | > 100 µM (inactive) | > 100 µM (inactive) | > 100 µM (inactive) | > 100 µM (inactive) | > 100 µM (inactive) | > 100 µM (inactive) | > 100 µM (inactive) | > 100 µM (inactive) | > 100 µM (inactive) | – | > 100 µM (inactive) | > 100 µM (inactive) | – | > 100 µM (inactive) | > 100 µM (inactive) | > 100 µM (inactive)
CCCCCCCCCCCCCCCCNc1nc(=O)n(C2CC(O)C(COP(=O)(O)OC3CC(n4cc(F)c(=O)[nH]c4=O)OC3CO)O2)cc1F (stereo not drawn) | 0.44 µM (active) | 29.7 µM (inactive) | 10.9 µM (inactive) | < 0.0218 µM (active) | 4.38 µM (inactive) | 32.1 µM (inactive) | 0.0822 µM (active) | 0.0234 µM (active) | 0.258 µM (active) | 6.97 µM (inactive) | 0.571 µM (active) | 0.504 µM (active) | 6.68 µM (inactive) | 0.0333 µM (active) | 11.6 µM (inactive) | < 0.01 µM (active) | – | 6.35 µM (inactive) | 0.09 µM (active)
CC(C)(C)OC(=O)N1N=CCC1c1ccccc1 (stereo not drawn) | > 100 µM (inactive) | > 100 µM (inactive) | > 100 µM (inactive) | > 100 µM (inactive) | > 100 µM (inactive) | > 100 µM (inactive) | > 100 µM (inactive) | > 100 µM (inactive) | > 100 µM (inactive) | > 100 µM (inactive) | > 100 µM (inactive) | > 100 µM (inactive) | > 100 µM (inactive) | > 100 µM (inactive) | > 100 µM (inactive) | > 100 µM (inactive) | > 100 µM (inactive) | – | > 100 µM (inactive)
C/C(=N\OCC(O)CNCCSCc1ccccc1)c1ccccc1Cl (stereo not drawn) | 37.5 µM (inactive) | 19.3 µM (inactive) | 19.2 µM (inactive) | 17.3 µM (inactive) | 13.2 µM (inactive) | 20 µM (inactive) | 21.8 µM (inactive) | 18.1 µM (inactive) | 17.7 µM (inactive) | 18.7 µM (inactive) | 17.1 µM (inactive) | 21.6 µM (inactive) | 22.6 µM (inactive) | 19.6 µM (inactive) | 19.2 µM (inactive) | 19.4 µM (inactive) | 18.6 µM (inactive) | 18.5 µM (inactive) | 15.6 µM (inactive)
CC(C)=CC(=O)C1c2cccc(O)c2C(=O)c2c(O)cc(C)cc21 (stereo not drawn) | 2.44 µM (inactive) | 2.34 µM (inactive) | 1.79 µM (inactive) | 2.12 µM (inactive) | 2.75 µM (inactive) | 3.33 µM (inactive) | 3.61 µM (inactive) | 2.12 µM (inactive) | 5.25 µM (inactive) | 2.16 µM (inactive) | 2.05 µM (inactive) | 2.14 µM (inactive) | – | 1.92 µM (inactive) | 2.81 µM (inactive) | 1.2 µM (inactive) | 1.84 µM (inactive) | – | 10.7 µM (inactive)
CCn1c(=N)sc2nc3ccccc3n2c1=O | > 100 µM (inactive) | > 100 µM (inactive) | > 100 µM (inactive) | > 100 µM (inactive) | > 100 µM (inactive) | > 100 µM (inactive) | > 100 µM (inactive) | > 100 µM (inactive) | > 100 µM (inactive) | > 100 µM (inactive) | > 100 µM (inactive) | > 100 µM (inactive) | > 100 µM (inactive) | > 100 µM (inactive) | > 100 µM (inactive) | > 100 µM (inactive) | > 100 µM (inactive) | > 100 µM (inactive) | > 100 µM (inactive)
C=C(C)CC1=C(C(=S)NCCO[Si](C)(C)C(C)(C)C)C(OCC)(OCC)C1=O | 16.9 µM (inactive) | 14 µM (inactive) | 22.3 µM (inactive) | 19.1 µM (inactive) | 29.8 µM (inactive) | 18.4 µM (inactive) | – | 18 µM (inactive) | 16.3 µM (inactive) | 13.6 µM (inactive) | 15.2 µM (inactive) | 18.2 µM (inactive) | 11.4 µM (inactive) | 15.2 µM (inactive) | 18.2 µM (inactive) | – | 17.6 µM (inactive) | 14.8 µM (inactive) | 21.7 µM (inactive)
O=[N+]([O-])c1cc(-c2nnc(C34CC5CC(CC(C5)C3)C4)o2)cc([N+](=O)[O-])c1 | > 100 µM (inactive) | > 100 µM (inactive) | 17.9 µM (inactive) | 86.1 µM (inactive) | 36.1 µM (inactive) | 15.4 µM (inactive) | 82.2 µM (inactive) | 58.6 µM (inactive) | > 100 µM (inactive) | > 100 µM (inactive) | 14.1 µM (inactive) | 12.3 µM (inactive) | > 100 µM (inactive) | 48.1 µM (inactive) | > 100 µM (inactive) | 70.5 µM (inactive) | > 100 µM (inactive) | 45.2 µM (inactive) | 61.7 µM (inactive)
COc1ccc(NC(=O)c2cc(OC)cc(OC)c2)cc1 | 41.1 µM (inactive) | > 59.8 µM (inactive) | 7.1 µM (inactive) | 36.7 µM (inactive) | > 100 µM (inactive) | 7.01 µM (inactive) | 18 µM (inactive) | 57.4 µM (inactive) | 21.9 µM (inactive) | 17.8 µM (inactive) | 9.38 µM (inactive) | 8.41 µM (inactive) | – | 12.1 µM (inactive) | 31.4 µM (inactive) | 23 µM (inactive) | 17.8 µM (inactive) | – | 35.4 µM (inactive)
